Laboratory results from patent publication US9890133B2 (priority 2011, dated 2018).
Values after ≈ are worked out from the molar mass of the structure shown.

Experiments:
Poliovirus 3 = test: microbe, parasite or virus in culture; assay type: cell-based; details: Enterovirus C, read-out: Poliovirus3 EC50
in vitro = details: human

Compound	EC50 (Poliovirus 3)	CC50 (in vitro)	CC50 (in vitro; Picorana CC50)
CC(C)c1ccc2c(c1)OC1(O)c3cccc(N)c3C(=O)C21NC(=O)c1ccnc2ccccc12 (stereo not shown) [Example 215, N-(1-Amino-4b-hydroxy-7-isopropyl-10-oxo-9b,10-dihydro-4bH-indeno[1,2-b]benzofuran-9b-yl)quinoline-4-carboxamide]	< 0.01 µg/mL	> 10 µg/mL	–
CC(C)c1ccc2c(c1)OC1(O)c3cccc(N)c3C(=O)C21NC(=O)c1ccncc1Cl (stereo not shown) [Example 251, N-(1-Amino-4b-hydroxy-7-isopropyl-10-oxo-9b,10-dihydro-4bH-indeno[1,2-b]benzofuran-9b-yl)-3-chloroisonicotinamide]	< 0.01 µg/mL	> 10 µg/mL	–
CC(C)c1ccc2c(c1)OC1(O)c3ccccc3C(=O)C21NC(=O)c1cccs1 (stereo not shown) [Example 161, N-(4b-Hydroxy-7-isopropyl-10-oxo-9b,10-dihydro-4bH-indeno[1,2-b]benzofuran-9b-yl)thiophene-2-carboxamide]	< 0.01 µg/mL	17.9 µg/mL (≈ 44.1 µM)	40.7 µg/mL (≈ 100 µM)
CC(C)c1ccc2c(c1)OC1(O)c3cccc(N)c3C(=O)C21NC(=O)c1cccc(Cl)c1 (stereo not shown) [Example 190, N-(1-Amino-4b-hydroxy-7-isopropyl-10-oxo-9b,10-dihydro-4bH-indeno[1,2-b]benzofuran-9b-yl)-3-chlorobenzamide]	< 0.01 µg/mL	5.52 µg/mL (≈ 12.3 µM)	> 10 µg/mL
CC(C)c1ccc2c(c1)OC1(O)c3cccc(N)c3C(=O)C21NC(=O)c1cnc2ccccc2c1 (stereo not shown) [Example 214, N-(1-Amino-4b-hydroxy-7-isopropyl-10-oxo-9b,10-dihydro-4bH-indeno[1,2-b]benzofuran-9b-yl)quinoline-3-carboxamide]	< 0.01 µg/mL	> 10 µg/mL	–
CC(C)c1ccc2c(c1)OC1(O)c3cccc(N)c3C(=O)C21NC(=O)c1cccn2nnnc12 (stereo not shown) [Example 279, N-(1-Amino-4b-hydroxy-7-isopropyl-10-oxo-9b,10-dihydro-4bH-indeno[1,2-b]benzofuran-9b-yl)tetrazolo[1,5-a]pyridine-8-carboxamide]	0.035 µg/mL (≈ 0.0767 µM)	4.94 µg/mL (≈ 10.8 µM)	7.88 µg/mL (≈ 17.3 µM)
CC(C)c1ccc2c(c1)OC1(O)c3cccc(N)c3C(=O)C21NC(=O)Cc1ccccc1 (stereo not shown) [Example 179, N-(1-Amino-4b-hydroxy-7-isopropyl-10-oxo-9b,10-dihydro-4bH-indeno[1,2-b]benzofuran-9b-yl)-2-phenylacetamide]	< 0.01 µg/mL	> 10 µg/mL	–
Cc1cc2c(cc1C)C1(NC(=O)c3ccc4ncccc4c3)C(=O)c3c(N)cccc3C1(O)O2 (stereo not shown) [Example 262, N-(1-Amino-4b-hydroxy-7,8-dimethyl-10-oxo-9b,10-dihydro-4bH-indeno[1,2-b]benzofuran-9b-yl)quinoline-6-carboxamide]	0.0124 µg/mL (≈ 0.0275 µM)	> 10 µg/mL	–
CC(C)c1ccc2c(c1)OC1(O)c3cccc(N)c3C(=O)C21NC(=O)C(C)(C)C (stereo not shown) [Example 114, N-(1-Amino-4b-hydroxy-7-isopropyl-10-oxo-9b,10-dihydro-4bH-benzo[d]indeno[1,2-b]furan-9b-yl)pivalamide]	0.034 µg/mL (≈ 0.0862 µM)	43.1 µg/mL (≈ 109 µM)	45.9 µg/mL (≈ 116 µM)
Cc1cc(C(=O)NC23C(=O)c4c(N)cccc4C2(O)Oc2cc(C(C)C)ccc23)ccn1 (stereo not shown) [Example 249, N-(1-Amino-4b-hydroxy-7-isopropyl-10-oxo-9b,10-dihydro-4bH-indeno[1,2-b]benzofuran-9b-yl)-2-methylisonicotinamide]	< 0.01 µg/mL	> 10 µg/mL	–
CC(C)c1ccc2c(c1)OC1(O)c3cccc(N)c3C(=O)C21NC(=O)c1cnc2ccccc2n1 (stereo not shown) [Example 275, N-(1-Amino-4b-hydroxy-7-isopropyl-10-oxo-9b,10-dihydro-4bH-indeno[1,2-b]benzofuran-9b-yl)quinoxaline-2-carboxamide]	0.035 µg/mL (≈ 0.075 µM)	4.55 µg/mL (≈ 9.75 µM)	4.78 µg/mL (≈ 10.2 µM)
CC(C)c1ccc2c(c1)OC1(O)c3cccc(N)c3C(=O)C21NC(=O)c1cnnc2ccccc12 (stereo not shown) [Example 238, N-(1-Amino-4b-hydroxy-7-isopropyl-10-oxo-9b,10-dihydro-4bH-benzo[d]indeno[1,2-b]furan-9b-yl)cinnoline-4-carboxamide]	< 0.01 µg/mL	> 10 µg/mL	8.33 µg/mL (≈ 17.9 µM)
Cc1ccc(C(=O)NC23C(=O)c4c(N)cccc4C2(O)Oc2cc(C(C)C)ccc23)cc1 (stereo not shown) [Example 188, N-(1-Amino-4b-hydroxy-7-isopropyl-10-oxo-9b,10-dihydro-4bH-benzo[d]indeno[1,2-b]furan-9b-yl)-4-methylbenzamide]	< 0.01 µg/mL	> 10 µg/mL	8.38 µg/mL (≈ 19.6 µM)
CC(C)c1ccc2c(c1)OC1(O)c3ccccc3C(=O)C21NC(=O)c1ccc2[nH]cnc2c1 (stereo not shown) [Example 240, N-(4b-hydroxy-7-isopropyl-10-oxo-9b,10-dihydro-4bH-benzo[d]indeno[1,2-b]furan-9b-yl)-1H-benzo[d]imidazole-5-carboxamide]	< 0.01 µg/mL	> 10 µg/mL	8.25 µg/mL (≈ 18.8 µM)
CC(C)c1ccc2c(c1)OC1(O)c3cccc(N)c3C(=O)C21NC(=O)Cn1cnnn1 (stereo not shown) [Example 213, N-(1-Amino-4b-hydroxy-7-isopropyl-10-oxo-9b,10-dihydro-4bH-benzo[d]indeno[1,2-b]furan-9b-yl)-2-(1H-tetrazol-1-yl)acetamide]	< 0.01 µg/mL	> 10 µg/mL	–
Cc1nc(C(=O)NC23C(=O)c4c(N)cccc4C2(O)Oc2cc(C(C)C)ccc23)c2ccccn12 (stereo not shown) [Example 287, N-(1-Amino-4b-hydroxy-7-isopropyl-10-oxo-9b,10-dihydro-4bH-benzo[d]indeno[1,2-b]furan-9b-yl)-3-methylimidazo[1,5-a]pyridine-1-carboxamide]	0.036 µg/mL (≈ 0.0768 µM)	> 10 µg/mL	7.01 µg/mL (≈ 15 µM)
CCC(=O)NC12C(=O)c3c(N)cccc3C1(O)Oc1cc(C(C)C)ccc12 (stereo not shown) [Example 143, N-(1-Amino-4b-hydroxy-7-isopropyl-10-oxo-9b,10-dihydro-4bH-indeno[1,2-b]benzofuran-9b-yl)propionamide]	< 0.01 µg/mL	58.1 µg/mL (≈ 158 µM)	> 50 µg/mL
CC(C)c1ccc2c(c1)OC1(O)c3cccc(N)c3C(=O)C21NC(=O)c1ccccc1 (stereo not shown) [Example 153, N-(1-Amino-4b-hydroxy-7-isopropyl-10-oxo-9b,10-dihydro-4bH-indeno[1,2-b]benzofuran-9b-yl)benzamide]	< 0.01 µg/mL	16 µg/mL (≈ 38.7 µM)	9.02 µg/mL (≈ 21.8 µM)
Cc1ncsc1C(=O)NC12C(=O)c3c(N)cccc3C1(O)Oc1cc(C(C)C)ccc12 (stereo not shown) [Example 206, N-(1-Amino-4b-hydroxy-7-isopropyl-10-oxo-9b,10-dihydro-4bH-indeno[1,2-b]benzofuran-9b-yl)-4-methylthiazole-5-carboxamide]	< 0.01 µg/mL	> 10 µg/mL	–
CC(C)c1ccc2c(c1)OC1(O)c3cccc(N)c3C(=O)C21NC(=O)c1ccc2nnnn2c1 (stereo not shown) [Example 278, N-(1-Amino-4b-hydroxy-7-isopropyl-10-oxo-9b,10-dihydro-4bH-indeno[1,2-b]benzofuran-9b-yl)tetrazolo[1,5-a]pyridine-6-carboxamide]	< 0.01 µg/mL	> 10 µg/mL	–
COc1cc(C(=O)NC23C(=O)c4c(N)cccc4C2(O)Oc2cc(C(C)C)ccc23)ccn1 (stereo not shown) [Example 234, N-(1-Amino-4b-hydroxy-7-isopropyl-10-oxo-9b,10-dihydro-4bH-indeno[1,2-b]benzofuran-9b-yl)-2-methoxyisonicotinamide]	< 0.01 µg/mL	> 10 µg/mL	9.1 µg/mL (≈ 20.4 µM)
COc1sccc1C(=O)NC12C(=O)c3c(N)cccc3C1(O)Oc1cc(C(C)C)ccc12 (stereo not shown) [Example 217, N-(1-Amino-4b-hydroxy-7-isopropyl-10-oxo-9b,10-dihydro-4bH-indeno[1,2-b]benzofuran-9b-yl)-2-methoxythiophene-3-carboxamide]	0.038 µg/mL (≈ 0.0843 µM)	> 10 µg/mL	4.24 µg/mL (≈ 9.41 µM)
COc1ccccc1C(=O)NC12C(=O)c3c(N)cccc3C1(O)Oc1cc(C(C)C)ccc12 (stereo not shown) [Example 183, N-(1-Amino-4b-hydroxy-7-isopropyl-10-oxo-9b,10-dihydro-4bH-indeno[1,2-b]benzofuran-9b-yl)-2-methoxybenzamide]	0.014 µg/mL (≈ 0.0315 µM)	> 10 µg/mL	8.54 µg/mL (≈ 19.2 µM)
CC(C)c1ccc2c(c1)OC1(O)c3cccc(N)c3C(=O)C21NC(=O)c1n[nH]cc1[N+](=O)[O-] (stereo not shown) [Example 242, N-(1-Amino-4b-hydroxy-7-isopropyl-10-oxo-9b,10-dihydro-4bH-benzo[d]indeno[1,2-b]furan-9b-yl)-4-nitro-1H-pyrazole-3-carboxamide]	< 0.01 µg/mL	> 10 µg/mL	8.55 µg/mL (≈ 19 µM)
CC(C)c1ccc2c(c1)OC1(O)c3ccccc3C(=O)C21NC(=O)c1ccc([N+](=O)[O-])s1 (stereo not shown) [Example 223, N-(4b-hydroxy-7-isopropyl-10-oxo-9b,10-dihydro-4bH-benzo[d]indeno[1,2-b]furan-9b-yl)-5-nitrothiophene-2-carboxamide]	< 0.01 µg/mL	4.36 µg/mL (≈ 9.68 µM)	7.46 µg/mL (≈ 16.6 µM)
CC(C)c1ccc2c(c1)OC1(O)c3ccccc3C(=O)C21NC(=O)c1ccc2[nH]nnc2c1 (stereo not shown) [Example 221, N-(4b-Hydroxy-7-isopropyl-10-oxo-9b,10-dihydro-4bH-benzo[d]indeno[1,2-b]furan-9b-yl)-1H-benzo[d][1,2,3]triazole-5-carboxamide]	0.016 µg/mL (≈ 0.0363 µM)	6.53 µg/mL (≈ 14.8 µM)	14.5 µg/mL (≈ 32.9 µM)
CC(C)c1ccc2c(c1)OC1(O)c3cccc(N)c3C(=O)C21NC(=O)c1ccncc1F (stereo not shown) [Example 250, N-(1-Amino-4b-hydroxy-7-isopropyl-10-oxo-9b,10-dihydro-4bH-indeno[1,2-b]benzofuran-9b-yl)-3-fluoroisonicotinamide]	< 0.01 µg/mL	> 10 µg/mL	–
Cc1cccc(C(=O)NC23C(=O)c4c(N)cccc4C2(O)Oc2cc(C(C)C)ccc23)c1 (stereo not shown) [Example 187, N-(1-Amino-4b-hydroxy-7-isopropyl-10-oxo-9b,10-dihydro-4bH-benzo[d]indeno[1,2-b]furan-9b-yl)-3-methylbenzamide]	< 0.01 µg/mL	> 10 µg/mL	7.43 µg/mL (≈ 17.3 µM)
COc1cncc(C(=O)NC23C(=O)c4c(N)cccc4C2(O)Oc2cc(C(C)C)ccc23)c1 (stereo not shown) [Example 261, N-(1-Amino-4b-hydroxy-7-isopropyl-10-oxo-9b,10-dihydro-4bH-indeno[1,2-b]benzofuran-9b-yl)-5-methoxynicotinamide]	< 0.01 µg/mL	> 10 µg/mL	–
